Measurements reported in patent US7683168B2, “Compositions of novel opioid compounds and method of use thereof” (priority 2005, dated 2010).

Key:
human delta receptor = target: T1, human delta receptor (Homo sapiens, UniProt P41143); assay: radioligand binding, human delta receptor, HEK-293 cell membranes; conditions: cell not marked (rat), species not given, read-out: δ
T1 construct: purchased Perkin Elmer, Boston, Mass; 6110549; host or cells: HEK-293 cells

human mu opioid receptor = target: T2, human mu opioid receptor (Homo sapiens, UniProt P35372); assay: radioligand binding, human mu opioid receptor, CHO cell membranes; conditions: species not given, read-out: μ
T2 construct: purchased Perkin Elmer, Boston, Mass; 6110535; host or cells: CHO cells
T2 sequence (P35372 whole entry): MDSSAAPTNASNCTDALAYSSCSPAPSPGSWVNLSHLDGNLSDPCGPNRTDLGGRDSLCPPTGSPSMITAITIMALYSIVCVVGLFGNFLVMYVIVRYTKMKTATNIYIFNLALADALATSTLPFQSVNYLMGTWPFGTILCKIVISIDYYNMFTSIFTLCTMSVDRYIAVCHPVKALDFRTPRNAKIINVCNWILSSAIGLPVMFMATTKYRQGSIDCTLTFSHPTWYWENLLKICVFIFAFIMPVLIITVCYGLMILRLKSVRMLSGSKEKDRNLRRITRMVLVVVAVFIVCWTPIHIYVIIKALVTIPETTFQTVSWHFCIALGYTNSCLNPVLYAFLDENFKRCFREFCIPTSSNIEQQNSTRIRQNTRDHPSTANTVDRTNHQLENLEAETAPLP

mouse vas deferens = assay: electrically stimulated mouse vas deferens (MVD) ED50; type: cell-based; conditions: ED50, inhibition of electrically induced contractions

T1 sequence (P41143 whole entry): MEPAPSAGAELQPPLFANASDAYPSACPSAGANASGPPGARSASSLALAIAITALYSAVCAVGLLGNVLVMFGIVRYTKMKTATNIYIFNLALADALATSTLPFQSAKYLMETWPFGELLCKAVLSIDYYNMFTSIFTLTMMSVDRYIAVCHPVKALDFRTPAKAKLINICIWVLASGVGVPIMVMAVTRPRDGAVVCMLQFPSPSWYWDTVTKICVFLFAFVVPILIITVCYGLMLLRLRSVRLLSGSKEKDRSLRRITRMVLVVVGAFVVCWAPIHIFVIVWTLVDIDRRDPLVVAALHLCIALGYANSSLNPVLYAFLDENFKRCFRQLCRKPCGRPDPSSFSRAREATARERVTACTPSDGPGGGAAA

Row | Compound | Ki (human delta receptor) | Ki (human mu opioid receptor) | EC50 (mouse vas deferens)
1 | CCOC(=O)CCCN1CCCN(C(=O)c2cccc(C(c3cccc(O)c3)N3C[C@@H](C)N(CC4CC4)C[C@@H]3C)c2)CC1 (stereo partly drawn) | 10.3 nM | 3.9 nM | 92.5 nM
2 | C[C@@H]1CN(C(c2cccc(O)c2)c2cccc(C(=O)N3CCCN(CCCC(=O)O)CC3)c2)[C@@H](C)CN1CC1CC1 (stereo partly drawn) | 527 nM | 26.5 nM | 60.9 nM
3 | CCOC(=O)CCCCN1CCCN(C(=O)c2cccc(C(c3cccc(O)c3)N3C[C@@H](C)N(CC4CC4)C[C@@H]3C)c2)CC1 (stereo partly drawn) | 88.5 nM | 29.9 nM | 116 nM
4 | C[C@@H]1CN(C(c2cccc(O)c2)c2cccc(C(=O)N3CCCN(CCCCC(=O)O)CC3)c2)[C@@H](C)CN1CC1CC1 (stereo partly drawn) | 62.1 nM | 558 nM | 77.5 nM
5 | C=CCN1C[C@H](C)N(C(c2cccc(O)c2)c2cccc(C(=O)N3CCCN(CCCCCC(=O)OCC)CC3)c2)C[C@H]1C (stereo partly drawn) | 3.2 nM | 21.3 nM | 43.3 nM
6 | CCOC(=O)CCCCCN1CCCN(C(=O)c2cccc(C(c3cccc(O)c3)N3C[C@@H](C)N(Cc4ccccc4)C[C@@H]3C)c2)CC1 (stereo partly drawn) | 3.7 nM | 23.4 nM | 29.6 nM
7 | CCOC(=O)CCCCCN1CCCN(C(=O)c2cccc(C(c3cccc(O)c3)N3C[C@@H](C)N(Cc4cccc(F)c4)C[C@@H]3C)c2)CC1 (stereo partly drawn) | 12.9 nM | 58.5 nM | 156 nM
8 | C[C@@H]1CN(C(c2cccc(O)c2)c2cccc(C(=O)N3CCCN(CCCCCC(=O)O)CC3)c2)[C@@H](C)CN1Cc1cccc(F)c1 (stereo partly drawn) | 25.1 nM | 222 nM | 16.2 nM
9 | CCOC(=O)CCCCCN1CCCN(C(=O)c2cccc(C(c3cccc(O)c3)N3C[C@@H](C)N(CC4CC4)C[C@@H]3C)c2)CC1 (stereo partly drawn) | 23.5 nM | 9.3 nM | 1040 nM
10 | C[C@@H]1CN(C(c2cccc(O)c2)c2cccc(C(=O)N3CCCN(CCCCCC(=O)O)CC3)c2)[C@@H](C)CN1CC1CC1 (stereo partly drawn) | 5.6 nM | 20.3 nM | 110 nM
11 | C=CCN1C[C@H](C)N(C(c2cccc(O)c2)c2cccc(C(=O)N3CCCN(CCCCCCC(=O)OCC)CC3)c2)C[C@H]1C (stereo partly drawn) | 3.1 nM | 3.9 nM | 52.3 nM
12 | C=CCN1C[C@H](C)N(C(c2cccc(O)c2)c2cccc(C(=O)N3CCCN(CCCCCCC(=O)O)CC3)c2)C[C@H]1C (stereo partly drawn) | 5.6 nM | 8.3 nM | 34.9 nM
13 | CCOC(=O)CCCCCCN1CCCN(C(=O)c2cccc(C(c3cccc(O)c3)N3C[C@@H](C)N(Cc4ccccc4)C[C@@H]3C)c2)CC1 (stereo partly drawn) | 2.4 nM | 3.8 nM | 28.6 nM
14 | C[C@@H]1CN(C(c2cccc(O)c2)c2cccc(C(=O)N3CCCN(CCCCCCC(=O)O)CC3)c2)[C@@H](C)CN1Cc1ccccc1 (stereo partly drawn) | 4.9 nM | 6.3 nM | 10.4 nM
15 | C[C@@H]1CN(C(c2cccc(O)c2)c2cccc(C(=O)N3CCCN(CCCCCCC(=O)O)CC3)c2)[C@@H](C)CN1CC1CC1 (stereo partly drawn) | 50.6 nM | 40.7 nM | 339 nM
16 | CCOC(=O)N1CCN(C(=O)c2cccc([C@H](c3cccc(O)c3)N3C[C@@H](C)N(Cc4cccc(F)c4)C[C@@H]3C)c2)CC1 [Example 60, 4-{3-[(R)-[(2S,5R)-4-(3-Fluorobenzyl)-2,5-dimethylpiperazin-1-yl]-(3-hydroxyphenyl)methyl]benzoyl}piperazine-1-carboxylic acid ethyl ester] | 13.1 nM | 9.8 nM | 47.2 nM
17 | CCOC(=O)CN1CCN(C(=O)c2cccc([C@H](c3cccc(O)c3)N3C[C@@H](C)N(Cc4cccc(F)c4)C[C@@H]3C)c2)CC1 [Example 66, (4-{3-[(R)-[(2S,5R)-4-(3-Fluoro-benzyl)-2,5-dimethyl-piperazin-1-yl]-(3-hydroxy-phenyl)-methyl]-benzoyl}-piperazin-1-yl)-acetic acid ethyl ester] | 1.3 nM | 5.05 nM | 22 nM
18 | CCOC(=O)CN1CCN(C(=O)c2cccc([C@H](c3cccc(O)c3)N3C[C@@H](C)N(CC4CC4)C[C@@H]3C)c2)CC1 [Example 70, (4-{3-[(R)-((2S,5R)-4-Cyclopropylmethyl-2,5-dimethyl-piperazin-1-yl)-(3-hydroxy-phenyl)-methyl]-benzoyl}-piperazin-1-yl)-acetic acid ethyl ester] | 3.5 nM | 8.7 nM | 55.4 nM
19 | C[C@@H]1CN([C@@H](c2cccc(O)c2)c2cccc(C(=O)N3CCN(CC(=O)O)CC3)c2)[C@@H](C)CN1CC1CC1 [Example 71] | 6.1 nM | 81.8 nM | 35.9 nM
20 | CCOC(=O)CCCN1CCN(C(=O)c2cccc([C@H](c3cccc(O)c3)N3C[C@@H](C)N(CC4CC4)C[C@@H]3C)c2)CC1 [Example 77, 4-(4-{3-[(R)-((2S,5R)-4-Cyclopropylmethyl-2,5-dimethyl-piperazin-1-yl)-(3-hydroxy-phenyl)-methyl]-benzoyl}-piperazin-1-yl)-butyric acid ethyl ester] | 402 nM | 4.4 nM | 111 nM
21 | CCOC(=O)CCCN1CCN(C(=O)c2cccc([C@H](c3cccc(O)c3)N3C[C@@H](C)N(Cc4cccc(F)c4)C[C@@H]3C)c2)CC1 [Example 81, 4-(4-{3-[(R)-((2S,5R)-4-(3-Fluorobenzyl)-2,5-dimethyl-piperazin-1-yl)-(3-hydroxy-phenyl)-methyl]-benzoyl}-piperazin-1-yl)-butyric acid ethyl ester] | 12.7 nM | 4.9 nM | 44.8 nM
22 | CCOC(=O)CCCCN1CCN(C(=O)c2cccc([C@H](c3cccc(O)c3)N3C[C@@H](C)N(Cc4cccc(F)c4)C[C@@H]3C)c2)CC1 [Example 87, 5-(4-{3-[(R)-((2S,5R)-4-(3-Fluorobenzyl)-2,5-dimethyl-piperazin-1-yl)-(3-hydroxy-phenyl)-methyl]-benzoyl}-piperazin-1-yl)-pentanoic acid ethyl ester] | 10.8 nM | 21.3 nM | 36.2 nM
23 | CCOC(=O)CCCCN1CCN(C(=O)c2cccc([C@H](c3cccc(O)c3)N3C[C@@H](C)N(CC4CC4)C[C@@H]3C)c2)CC1 [Example 89, 5-(4-{3-[(R)-((2S,5R)-4-Cyclopropylmethyl-2,5-dimethyl-piperazin-1-yl)-(3-hydroxy-phenyl)-methyl]-benzoyl}-piperazin-1-yl)-pentanoic acid ethyl ester] | 15.4 nM | 23.2 nM | 92.7 nM
24 | C[C@@H]1CN([C@@H](c2cccc(O)c2)c2cccc(C(=O)N3CCN(CCCCC(=O)O)CC3)c2)[C@@H](C)CN1CC1CC1 [Example 90, 5-(4-{3-[(R)-((2S,5R)-4-Cyclopropylmethyl-2,5-dimethyl-piperazin-1-yl)-(3-hydroxy-phenyl)-methyl]-benzoyl}-piperazin-1-yl)-pentanoic acid] | 32.5 nM | 409 nM | 46.2 nM
25 | C=CCN1C[C@H](C)N([C@@H](c2cccc(O)c2)c2cccc(C(=O)N3CCN(CCCCCC(=O)OCC)CC3)c2)C[C@H]1C [Example 93, 6-(4-{3-[(R)-((2S,5R)-4-Allyl-2,5-dimethyl-piperazin-1-yl)-(3-hydroxy-phenyl)-methyl]-benzoyl}-piperazin-1-yl)-hexanoic acid ethyl ester] | 5.4 nM | 30.5 nM | 58.8 nM
